Legend:
Test in all cases: KINOMEscan competition binding
Conditions in all cases: compound 1.0 µM
[1] = tested on: KIT (human), P10721 [V559D/T670I]
[2] = target: PIK3CA (human) (UniProt P42336)
[3] = target: EPHA2 (human) (UniProt P29317)
[4] = target: MYLK2 (human) (UniProt Q9H1R3)
[5] = target: BLK (human) (UniProt P51451)
[6] = target: CDK2 (human) (UniProt P24941)
[7] = target: MKNK1 (human) (UniProt Q9BUB5)
[8] = target: EPHB4 (human) (UniProt P54760)
[9] = target: RIOK2 (human) (UniProt Q9BVS4)
[10] = target: NEK11 (human) (UniProt Q8NG66)
[11] = target: MAPK13 (human) (UniProt O15264)
[12] = target: MAP4K3 (human) (UniProt Q8IVH8)
[13] = target: HIPK2 (human) (UniProt Q9H2X6)
[14] = target: MAP2K6 (human) (UniProt P52564)
[15] = target: YSK4 (human) (UniProt Q56UN5)
[16] = target: AURKC (human) (UniProt Q9UQB9)
[17] = tested on: RET (human), P07949 [V804M]
[18] = target: NTRK3 (human) (UniProt Q16288)
[19] = target: EIF2AK2 (human) (UniProt P19525)
[20] = target: MAP3K1 (human) (UniProt Q13233)
[21] = target: PIK3C2G (human) (UniProt O75747)
[22] = target: FLT3 (human) (UniProt P36888)
[23] = target: MST4 (human) (UniProt Q9P289)
[24] = target: MAP3K2 (human) (UniProt Q9Y2U5)
[25] = target: MAPK12 (human) (UniProt P53778)
[26] = target: MAPK11 (human) (UniProt Q15759)
[27] = target: BMX (human) (UniProt P51813)
[28] = target: DAPK1 (human) (UniProt P53355)
[29] = tested on: EGFR (human), P00533 [G719C]
[30] = target: EPHB6 (human) (UniProt O15197)
[31] = target: BMPR2 (human) (UniProt Q13873)
[32] = target: SNRK (human) (UniProt Q9NRH2)
[33] = target: ABL2 (human) (UniProt P42684)
[34] = target: MAP3K15 (human) (UniProt Q6ZN16)
[35] = target: PKN2 (human) (UniProt Q16513)
[36] = target: RPS6KA3 KD1 (human) (UniProt P51812)
[37] = target: PTK2 (human) (UniProt Q05397)
[38] = target: DYRK2 (human) (UniProt Q92630)
[39] = target: EIF2AK1 (human) (UniProt Q9BQI3)
[40] = target: MAP3K6 (human) (UniProt O95382)
[41] = target: PRKCQ (human) (UniProt Q04759)
[42] = target: ROCK2 (human) (UniProt O75116)
[43] = target: PLK1 (human) (UniProt P53350)
Sequence of PLK1 (human) (P53350 whole entry, looked up): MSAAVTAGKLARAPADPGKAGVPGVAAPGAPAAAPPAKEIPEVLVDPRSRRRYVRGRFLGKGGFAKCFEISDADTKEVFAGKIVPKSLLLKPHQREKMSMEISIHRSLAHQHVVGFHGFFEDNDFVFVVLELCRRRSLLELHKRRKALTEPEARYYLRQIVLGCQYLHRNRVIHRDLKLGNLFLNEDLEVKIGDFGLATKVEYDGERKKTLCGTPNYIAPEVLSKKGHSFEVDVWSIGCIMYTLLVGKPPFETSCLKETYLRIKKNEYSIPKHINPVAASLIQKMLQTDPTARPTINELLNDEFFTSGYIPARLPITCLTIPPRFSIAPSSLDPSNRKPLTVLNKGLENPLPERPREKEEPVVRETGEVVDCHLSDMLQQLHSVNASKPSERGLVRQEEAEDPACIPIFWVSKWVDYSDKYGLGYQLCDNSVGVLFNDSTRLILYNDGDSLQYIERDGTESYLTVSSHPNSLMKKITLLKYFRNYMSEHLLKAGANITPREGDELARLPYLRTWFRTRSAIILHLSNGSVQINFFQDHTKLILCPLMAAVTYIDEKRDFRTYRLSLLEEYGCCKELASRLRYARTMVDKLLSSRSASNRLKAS

Sequence of RET (human), P07949 [V804M] (P07949 whole entry V804M, looked up): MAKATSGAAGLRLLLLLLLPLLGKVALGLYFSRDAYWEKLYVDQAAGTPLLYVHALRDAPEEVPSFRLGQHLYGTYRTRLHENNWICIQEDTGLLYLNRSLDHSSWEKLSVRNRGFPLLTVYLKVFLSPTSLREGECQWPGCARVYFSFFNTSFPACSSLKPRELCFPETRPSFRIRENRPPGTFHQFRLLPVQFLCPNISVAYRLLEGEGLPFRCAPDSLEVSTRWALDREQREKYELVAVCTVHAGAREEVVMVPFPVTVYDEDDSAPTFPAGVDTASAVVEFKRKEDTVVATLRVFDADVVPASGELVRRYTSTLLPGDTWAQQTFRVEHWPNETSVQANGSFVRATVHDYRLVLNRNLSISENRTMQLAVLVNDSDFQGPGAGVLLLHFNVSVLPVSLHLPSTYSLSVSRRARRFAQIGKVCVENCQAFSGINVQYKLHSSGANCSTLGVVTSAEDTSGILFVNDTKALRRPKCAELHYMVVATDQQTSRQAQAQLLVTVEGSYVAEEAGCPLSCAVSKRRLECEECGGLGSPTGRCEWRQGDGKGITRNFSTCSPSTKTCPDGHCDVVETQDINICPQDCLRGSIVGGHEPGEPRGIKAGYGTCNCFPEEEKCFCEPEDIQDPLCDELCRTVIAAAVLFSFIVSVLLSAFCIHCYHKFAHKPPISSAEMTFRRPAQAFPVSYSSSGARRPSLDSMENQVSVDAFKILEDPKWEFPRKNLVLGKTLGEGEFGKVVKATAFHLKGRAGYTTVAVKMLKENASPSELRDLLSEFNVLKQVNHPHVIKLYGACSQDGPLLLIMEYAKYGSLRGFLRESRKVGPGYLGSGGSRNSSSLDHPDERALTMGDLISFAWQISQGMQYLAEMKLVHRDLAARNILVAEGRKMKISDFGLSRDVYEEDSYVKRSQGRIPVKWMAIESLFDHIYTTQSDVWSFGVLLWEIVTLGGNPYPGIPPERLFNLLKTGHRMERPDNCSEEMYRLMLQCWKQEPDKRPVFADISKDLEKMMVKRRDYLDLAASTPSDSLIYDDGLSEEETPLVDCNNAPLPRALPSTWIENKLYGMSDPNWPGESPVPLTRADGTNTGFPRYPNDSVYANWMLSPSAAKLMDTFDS
Sequence of NEK11 (human) (Q8NG66 whole entry, looked up): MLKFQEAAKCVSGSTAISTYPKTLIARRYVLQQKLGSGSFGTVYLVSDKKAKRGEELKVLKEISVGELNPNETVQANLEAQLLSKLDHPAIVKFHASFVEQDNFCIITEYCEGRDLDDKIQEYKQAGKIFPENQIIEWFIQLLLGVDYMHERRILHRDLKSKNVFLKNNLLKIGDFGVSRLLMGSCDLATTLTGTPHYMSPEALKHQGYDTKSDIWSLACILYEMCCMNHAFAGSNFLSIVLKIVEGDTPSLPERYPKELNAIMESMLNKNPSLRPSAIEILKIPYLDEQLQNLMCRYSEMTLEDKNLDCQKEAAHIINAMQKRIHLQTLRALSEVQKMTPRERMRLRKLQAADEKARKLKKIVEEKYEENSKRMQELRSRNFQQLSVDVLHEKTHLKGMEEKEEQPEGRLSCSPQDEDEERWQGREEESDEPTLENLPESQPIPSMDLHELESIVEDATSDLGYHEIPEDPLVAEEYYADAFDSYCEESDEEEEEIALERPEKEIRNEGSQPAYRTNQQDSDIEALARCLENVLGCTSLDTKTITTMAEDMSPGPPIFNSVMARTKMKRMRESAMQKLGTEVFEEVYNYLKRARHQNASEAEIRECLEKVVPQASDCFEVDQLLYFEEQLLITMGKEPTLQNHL
Sequence of PKN2 (human) (Q16513 whole entry, looked up): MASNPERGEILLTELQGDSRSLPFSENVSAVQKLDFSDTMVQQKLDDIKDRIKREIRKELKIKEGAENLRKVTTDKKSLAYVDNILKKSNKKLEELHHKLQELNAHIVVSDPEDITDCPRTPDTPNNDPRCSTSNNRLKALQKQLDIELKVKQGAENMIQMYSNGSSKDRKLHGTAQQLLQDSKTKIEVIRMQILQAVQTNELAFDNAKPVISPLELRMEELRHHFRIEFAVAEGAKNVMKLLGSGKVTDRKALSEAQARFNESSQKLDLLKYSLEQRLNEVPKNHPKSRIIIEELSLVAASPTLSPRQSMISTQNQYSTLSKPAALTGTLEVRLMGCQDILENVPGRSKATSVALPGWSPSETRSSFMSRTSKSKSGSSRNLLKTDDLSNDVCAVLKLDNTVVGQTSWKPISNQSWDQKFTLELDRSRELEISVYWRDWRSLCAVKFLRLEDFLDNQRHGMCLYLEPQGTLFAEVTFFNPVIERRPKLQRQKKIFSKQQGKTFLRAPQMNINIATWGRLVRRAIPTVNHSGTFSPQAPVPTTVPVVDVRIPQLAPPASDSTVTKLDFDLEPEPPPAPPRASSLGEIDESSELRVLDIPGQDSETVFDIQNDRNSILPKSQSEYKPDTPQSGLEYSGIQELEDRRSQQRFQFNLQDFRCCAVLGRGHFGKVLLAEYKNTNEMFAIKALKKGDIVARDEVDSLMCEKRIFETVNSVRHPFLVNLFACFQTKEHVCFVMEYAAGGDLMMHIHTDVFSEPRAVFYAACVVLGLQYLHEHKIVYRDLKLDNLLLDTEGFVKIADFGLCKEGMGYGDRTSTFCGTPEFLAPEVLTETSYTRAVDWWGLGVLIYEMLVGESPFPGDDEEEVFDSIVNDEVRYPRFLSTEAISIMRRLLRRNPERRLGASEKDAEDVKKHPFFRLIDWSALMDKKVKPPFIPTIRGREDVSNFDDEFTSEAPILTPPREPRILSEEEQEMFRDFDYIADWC
Sequence of RPS6KA3 KD1 (human) (P51812 whole entry, looked up): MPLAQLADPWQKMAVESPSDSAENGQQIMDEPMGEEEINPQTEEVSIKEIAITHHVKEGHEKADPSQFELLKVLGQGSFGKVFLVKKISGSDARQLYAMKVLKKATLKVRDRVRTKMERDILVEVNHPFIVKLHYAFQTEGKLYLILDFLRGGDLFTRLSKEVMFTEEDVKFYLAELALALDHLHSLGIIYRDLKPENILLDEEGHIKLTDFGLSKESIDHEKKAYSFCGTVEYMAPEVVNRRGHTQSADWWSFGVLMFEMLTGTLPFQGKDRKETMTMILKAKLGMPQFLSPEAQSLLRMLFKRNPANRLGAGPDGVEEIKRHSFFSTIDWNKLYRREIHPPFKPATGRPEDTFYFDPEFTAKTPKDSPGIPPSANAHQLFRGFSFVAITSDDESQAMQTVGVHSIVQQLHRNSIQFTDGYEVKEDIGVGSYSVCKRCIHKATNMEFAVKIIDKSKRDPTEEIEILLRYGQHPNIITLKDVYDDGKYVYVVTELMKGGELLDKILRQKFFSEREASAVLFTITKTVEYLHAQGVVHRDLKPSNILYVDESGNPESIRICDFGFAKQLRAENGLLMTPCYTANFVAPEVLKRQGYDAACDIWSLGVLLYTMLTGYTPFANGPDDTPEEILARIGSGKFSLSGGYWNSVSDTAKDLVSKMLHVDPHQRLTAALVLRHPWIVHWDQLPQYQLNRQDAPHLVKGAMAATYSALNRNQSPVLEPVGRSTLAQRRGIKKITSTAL
Sequence of PRKCQ (human) (Q04759 whole entry, looked up): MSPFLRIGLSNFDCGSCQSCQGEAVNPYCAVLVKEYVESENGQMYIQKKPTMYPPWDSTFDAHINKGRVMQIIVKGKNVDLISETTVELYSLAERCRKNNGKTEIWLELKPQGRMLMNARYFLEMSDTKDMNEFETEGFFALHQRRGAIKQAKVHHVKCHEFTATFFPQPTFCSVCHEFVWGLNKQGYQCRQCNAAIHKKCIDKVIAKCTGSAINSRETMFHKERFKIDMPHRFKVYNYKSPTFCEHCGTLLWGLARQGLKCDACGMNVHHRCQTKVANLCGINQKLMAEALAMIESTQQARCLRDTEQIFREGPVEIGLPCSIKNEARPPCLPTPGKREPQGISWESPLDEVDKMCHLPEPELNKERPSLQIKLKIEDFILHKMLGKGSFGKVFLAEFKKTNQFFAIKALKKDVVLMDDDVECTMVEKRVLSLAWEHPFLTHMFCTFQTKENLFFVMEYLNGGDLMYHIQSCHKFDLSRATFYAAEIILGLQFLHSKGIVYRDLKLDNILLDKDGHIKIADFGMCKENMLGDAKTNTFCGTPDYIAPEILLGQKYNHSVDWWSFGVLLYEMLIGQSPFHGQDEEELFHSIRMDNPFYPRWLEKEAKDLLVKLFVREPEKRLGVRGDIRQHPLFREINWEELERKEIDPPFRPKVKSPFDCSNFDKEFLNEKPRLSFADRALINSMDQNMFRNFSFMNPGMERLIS

SMILES: COCCNCCCn1c(C(=O)CF)c(-c2ccc(C)cc2)c2c(N)ncnc21
- kinase still bound, per cent of control [1]: 86%
- kinase still bound, per cent of control [2]: 100%
- kinase still bound, per cent of control [3]: 100%
- kinase still bound, per cent of control [4]: 95%
- kinase still bound, per cent of control [5]: 100%
- kinase still bound, per cent of control [6]: 83%
- kinase still bound, per cent of control [7]: 100%
- kinase still bound, per cent of control [8]: 89%
- kinase still bound, per cent of control [9]: 100%
- kinase still bound, per cent of control [10]: 63%
- kinase still bound, per cent of control [11]: 89%
- kinase still bound, per cent of control [12]: 100%
- kinase still bound, per cent of control [13]: 94%
- kinase still bound, per cent of control [14]: 97%
- kinase still bound, per cent of control [15]: 100%
- kinase still bound, per cent of control [16]: 89%
- kinase still bound, per cent of control [17]: 100%
- kinase still bound, per cent of control [18]: 91%
- kinase still bound, per cent of control [19]: 90%
- kinase still bound, per cent of control [20]: 100%
- kinase still bound, per cent of control [21]: 92%
- kinase still bound, per cent of control [22]: 71%
- kinase still bound, per cent of control [23]: 69%
- kinase still bound, per cent of control [24]: 90%
- kinase still bound, per cent of control [25]: 100%
- kinase still bound, per cent of control [26]: 90%
- kinase still bound, per cent of control [27]: 98%
- kinase still bound, per cent of control [28]: 100%
- kinase still bound, per cent of control [29]: 84%
- kinase still bound, per cent of control [30]: 100%
- kinase still bound, per cent of control [31]: 72%
- kinase still bound, per cent of control [32]: 99%
- kinase still bound, per cent of control [33]: 100%
- kinase still bound, per cent of control [34]: 100%
- kinase still bound, per cent of control [35]: 94%
- kinase still bound, per cent of control [36]: 97%
- kinase still bound, per cent of control [37]: 100%
- kinase still bound, per cent of control [38]: 89%
- kinase still bound, per cent of control [39]: 100%
- kinase still bound, per cent of control [40]: 100%
- kinase still bound, per cent of control [41]: 99%
- kinase still bound, per cent of control [42]: 94%
- kinase still bound, per cent of control [43]: 100%
